In ChEMBL document CHEMBL4138123, “Design, synthesis and biological evaluation of novel pyrazolochalcones as potential modulators of PI3K/Akt/mTOR pathway and inducers of apoptosis in breast cancer cells” (Eur J Med Chem, 2017):

Key:
NCI-H226 = assay: Cytotoxicity against human NCI-H226 cells assessed as growth inhibition after 48 hrs by sulforhodamine B assay; format: functional; conditions: NCI-H226, 48 h
NCI-H322M = assay: Cytotoxicity against human NCI-H322M cells assessed as growth inhibition after 48 hrs by sulforhodamine B assay; format: functional; conditions: for CC50: read-out: LC50 (the source's name)
HCT-116 = assay: Cytotoxicity against human HCT116 cells assessed as growth inhibition after 48 hrs by sulforhodamine B assay; format: functional; conditions: HCT-116, 48 h
OVCAR-4 [1] = assay: Cytotoxicity against human OVCAR4 cells assessed as growth inhibition after 48 hrs by sulforhodamine B assay; format: functional; conditions: OVCAR-4, 48 h
PC-3 = assay: Cytotoxicity against human PC3 cells assessed as growth inhibition after 48 hrs by sulforhodamine B assay; format: functional; conditions: PC-3, 48 h
MDA-MB-231 = assay: Cytotoxicity against human MDA-MB-231 cells assessed as growth inhibition after 48 hrs by MTT assay; format: functional, cell-based; conditions: MDA-MB-231, 48 h
NCI/ADR-RES = assay: Cytotoxicity against human NCI/ADR-RES cells assessed as cell growth at 0.01 uM after 48 hrs by sulforhodamine B assay relative to control; format: functional; conditions: read-out: Activity
OVCAR-5 [2] = assay: Cytotoxicity against human OVCAR5 cells assessed as cell growth at 0.01 uM after 48 hrs by sulforhodamine B assay relative to control; format: functional; conditions: OVCAR-5, 48 h, read-out: Activity
OVCAR-3 = assay: Cytotoxicity against human OVCAR3 cells assessed as cell growth at 0.01 uM after 48 hrs by sulforhodamine B assay relative to control; format: functional; conditions: OVCAR-3, 48 h, read-out: Activity
SNB-19 = assay: Cytotoxicity against human SNB19 cells assessed as cell growth at 0.01 uM after 48 hrs by sulforhodamine B assay relative to control; format: functional; conditions: SNB-19, 48 h, read-out: Activity
NCI-H522 = assay: Cytotoxicity against human NCI-H522 cells assessed as cell growth at 0.01 uM after 48 hrs by sulforhodamine B assay relative to control; format: functional; conditions: NCI-H522, 48 h, read-out: Activity
NCI-H23 [3] = assay: Cytotoxicity against human NCI-H23 cells assessed as cell growth at 0.01 uM after 48 hrs by sulforhodamine B assay relative to control; format: functional; conditions: NCI-H23, 48 h, read-out: Activity
MOLT-4 = assay: Cytotoxicity against human MOLT4 cells assessed as cell growth at 0.1 uM after 48 hrs by sulforhodamine B assay relative to control; format: functional; conditions: MOLT-4, 48 h, read-out: Activity
NCI-H460 = assay: Cytotoxicity against human NCI-H460 cells assessed as cell growth at 0.1 uM after 48 hrs by sulforhodamine B assay relative to control; format: functional; conditions: NCI-H460, 48 h, read-out: Activity
COLO 205 = assay: Cytotoxicity against human COLO205 cells assessed as cell growth at 0.1 uM after 48 hrs by sulforhodamine B assay relative to control; format: functional; conditions: COLO 205, 48 h, read-out: Activity
HCC 2998 = assay: Cytotoxicity against human HCC2998 cells assessed as cell growth at 0.1 uM after 48 hrs by sulforhodamine B assay relative to control; format: functional; conditions: HCC 2998, 48 h, read-out: Activity
SN12C [4] = assay: Cytotoxicity against human SN12C cells assessed as cell growth at 0.1 uM after 48 hrs by sulforhodamine B assay relative to control; format: functional; conditions: read-out: Activity
UACC-257 [5] = assay: Cytotoxicity against human UACC257 cells assessed as cell growth at 1 uM after 48 hrs by sulforhodamine B assay relative to control; format: functional; conditions: UACC-257, 48 h, read-out: Activity
RXF 393 [6] = assay: Cytotoxicity against human RXF393 cells assessed as cell growth at 1 uM after 48 hrs by sulforhodamine B assay relative to control; format: functional; conditions: RXF 393, 48 h, read-out: Activity
SN12C [7] = assay: Cytotoxicity against human SN12C cells assessed as cell growth at 1 uM after 48 hrs by sulforhodamine B assay relative to control; format: functional; conditions: read-out: Activity
UO-31 = assay: Cytotoxicity against human UO31 cells assessed as cell growth at 1 uM after 48 hrs by sulforhodamine B assay relative to control; format: functional; conditions: UO-31, 48 h, read-out: Activity
DU-145 = assay: Cytotoxicity against human DU145 cells assessed as cell growth at 1 uM after 48 hrs by sulforhodamine B assay relative to control; format: functional; conditions: DU-145, 48 h, read-out: Activity
MCF7 = assay: Cytotoxicity against human MCF7 cells assessed as cell growth at 1 uM after 48 hrs by sulforhodamine B assay relative to control; format: functional; conditions: MCF7, 48 h, read-out: Activity
K562 = assay: Cytotoxicity against human K562 cells assessed as cell growth at 10 uM after 48 hrs by sulforhodamine B assay relative to control; format: functional; conditions: K562, 48 h, read-out: Activity
HT-29 = assay: Cytotoxicity against human HT-29 cells assessed as cell growth at 10 uM after 48 hrs by sulforhodamine B assay relative to control; format: functional; conditions: HT-29, 48 h, read-out: Activity
SK-OV-3 = assay: Cytotoxicity against human SKOV3 cells assessed as cell growth at 10 uM after 48 hrs by sulforhodamine B assay relative to control; format: functional; conditions: SK-OV-3, 48 h, read-out: Activity
RXF 393 [8] = assay: Cytotoxicity against human RXF393 cells assessed as cell growth at 10 uM after 48 hrs by sulforhodamine B assay relative to control; format: functional; conditions: RXF 393, 48 h, read-out: Activity
TK-10 = assay: Cytotoxicity against human TK10 cells assessed as cell growth at 10 uM after 48 hrs by sulforhodamine B assay relative to control; format: functional; conditions: TK-10, 48 h, read-out: Activity
HL-60(TB) = assay: Cytotoxicity against human HL-60(TB) cells assessed as cell growth at 100 uM after 48 hrs by sulforhodamine B assay relative to control; format: functional; conditions: HL-60, 48 h, read-out: Activity
NCI-H23 [9] = assay: Cytotoxicity against human NCI-H23 cells assessed as cell growth at 100 uM after 48 hrs by sulforhodamine B assay relative to control; format: functional; conditions: NCI-H23, 48 h, read-out: Activity
U-251 = assay: Cytotoxicity against human U251 cells assessed as cell growth at 100 uM after 48 hrs by sulforhodamine B assay relative to control; format: functional; conditions: U-251, 48 h, read-out: Activity
UACC-257 [10] = assay: Cytotoxicity against human UACC257 cells assessed as cell growth at 100 uM after 48 hrs by sulforhodamine B assay relative to control; format: functional; conditions: UACC-257, 48 h, read-out: Activity
OVCAR-4 [11] = assay: Cytotoxicity against human OVCAR4 cells assessed as cell growth at 100 uM after 48 hrs by sulforhodamine B assay relative to control; format: functional; conditions: OVCAR-4, 48 h, read-out: Activity
OVCAR-5 [12] = assay: Cytotoxicity against human OVCAR5 cells assessed as cell growth at 100 uM after 48 hrs by sulforhodamine B assay relative to control; format: functional; conditions: OVCAR-5, 48 h, read-out: Activity
OVCAR-8 = assay: Cytotoxicity against human OVCAR8 cells assessed as cell growth at 100 uM after 48 hrs by sulforhodamine B assay relative to control; format: functional; conditions: OVCAR-8, 48 h, read-out: Activity

## COc1cc2c(cc1OC)C(=O)/C(=C/c1cc(-c3ccc4c(c3)OCO4)n[nH]1)C2
NCI-H226
  GI50: 1.55 µM
  TGI: 3.32 µM
NCI-H322M
  GI50: 1.54 µM
  TGI: 3.01 µM
  CC50: 5.87 µM
HCT-116
  GI50: 1.03 µM
  LC50: 6.31 µM
  TGI: 2.54 µM
OVCAR-4 [1]
  GI50: 1.11 µM
  LC50: 5 µM
  TGI: 2.36 µM
PC-3
  GI50: 1.29 µM
  LC50: 6.6 µM
  TGI: 2.92 µM
MDA-MB-231
  IC50: 1.6 µM
NCI/ADR-RES
  growth at 0.01 µM: 101%
OVCAR-5 [2]
  growth at 0.01 µM: 102%
OVCAR-3
  growth at 0.01 µM: 101%
SNB-19
  growth at 0.01 µM: 97%
NCI-H522
  growth at 0.01 µM: 91%
NCI-H23 [3]
  growth at 0.01 µM: 93%
MOLT-4
  growth at 0.1 µM: 99%
NCI-H460
  growth at 0.1 µM: 101%
COLO 205
  growth at 0.1 µM: 105%
HCC 2998
  growth at 0.1 µM: 97%
SN12C [4]
  growth at 0.1 µM: 93%
UACC-257 [5]
  growth at 1 µM: 94%
RXF 393 [6]
  growth at 1 µM: 80%
SN12C [7]
  growth at 1 µM: 87%
UO-31
  growth at 1 µM: 68%
DU-145
  growth at 1 µM: 77%
MCF7
  growth at 1 µM: 15%
K562
  growth at 10 µM: 2%
HT-29
  growth at 10 µM: -77%
SK-OV-3
  growth at 10 µM: -18%
RXF 393 [8]
  growth at 10 µM: -78%
TK-10
  growth at 10 µM: -95%
HL-60(TB)
  growth at 100 µM: -36%
NCI-H23 [9]
  growth at 100 µM: -78%
U-251
  growth at 100 µM: -94%
UACC-257 [10]
  growth at 100 µM: -95%
OVCAR-4 [11]
  growth at 100 µM: -98%
OVCAR-5 [12]
  growth at 100 µM: -86%
OVCAR-8
  growth at 100 µM: -94%

## COc1ccc(C(=O)/C=C/c2cc(-c3cc(OC)c(OC)c(OC)c3)n[nH]2)cc1
NCI-H226
  TGI: 4.07 µM
NCI-H322M
  TGI: 4.07 µM
HCT-116
  LC50: > 100 µM
  TGI: 5.86 µM
OVCAR-4 [1]
  LC50: > 100 µM
  TGI: 8.32 µM
MDA-MB-231
  IC50: 0.95 µM
NCI/ADR-RES
  growth at 0.01 µM: 102%
OVCAR-5 [2]
  growth at 0.01 µM: 99%
OVCAR-3
  growth at 0.01 µM: 101%
SNB-19
  growth at 0.01 µM: 97%
NCI-H522
  growth at 0.01 µM: 83%
NCI-H23 [3]
  growth at 0.01 µM: 93%
MOLT-4
  growth at 0.1 µM: 103%
NCI-H460
  growth at 0.1 µM: 102%
COLO 205
  growth at 0.1 µM: 101%
HCC 2998
  growth at 0.1 µM: 97%
SN12C [4]
  growth at 0.1 µM: 96%
UACC-257 [5]
  growth at 1 µM: 87%
RXF 393 [6]
  growth at 1 µM: 67%
SN12C [7]
  growth at 1 µM: 91%
UO-31
  growth at 1 µM: 77%
DU-145
  growth at 1 µM: 76%
MCF7
  growth at 1 µM: 57%
K562
  growth at 10 µM: -17%
HT-29
  growth at 10 µM: -58%
SK-OV-3
  growth at 10 µM: 18%
RXF 393 [8]
  growth at 10 µM: -97%
TK-10
  growth at 10 µM: -29%
HL-60(TB)
  growth at 100 µM: -31%
NCI-H23 [9]
  growth at 100 µM: -23%
U-251
  growth at 100 µM: -25%
UACC-257 [10]
  growth at 100 µM: -4%
OVCAR-4 [11]
  growth at 100 µM: -15%
OVCAR-5 [12]
  growth at 100 µM: -59%
OVCAR-8
  growth at 100 µM: -16%

## COc1ccc(C(=O)/C=C/c2cc(-c3ccc4c(c3)OCO4)n[nH]2)cc1OC
NCI-H226
  LC50 (concentration killing 50% of cells): > 100 µM
  TGI: 11.2 µM
NCI-H322M
  TGI: 7.3 µM
  CC50: 29.6 µM
HCT-116
  LC50: 56.2 µM
  TGI: 7.99 µM
OVCAR-4 [1]
  LC50: > 100 µM
  TGI: 40.3 µM
PC-3
  GI50: 2.58 µM
  LC50: > 100 µM
  TGI: 18.2 µM
MDA-MB-231
  IC50: 1.5 µM
OVCAR-5 [2]
  growth at 0.01 µM: 96%
OVCAR-3
  growth at 0.01 µM: 103%
SNB-19
  growth at 0.01 µM: 91%
NCI-H522
  growth at 0.01 µM: 85%
NCI-H23 [3]
  growth at 0.01 µM: 90%
MOLT-4
  growth at 0.1 µM: 97%
NCI-H460
  growth at 0.1 µM: 102%
COLO 205
  growth at 0.1 µM: 103%
HCC 2998
  growth at 0.1 µM: 97%
SN12C [4]
  growth at 0.1 µM: 95%
UACC-257 [5]
  growth at 1 µM: 93%
RXF 393 [6]
  growth at 1 µM: 105%
SN12C [7]
  growth at 1 µM: 91%
UO-31
  growth at 1 µM: 79%
DU-145
  growth at 1 µM: 88%
MCF7
  growth at 1 µM: 88%
K562
  growth at 10 µM: 4%
HT-29
  growth at 10 µM: 2%
SK-OV-3
  growth at 10 µM: 17%
RXF 393 [8]
  growth at 10 µM: -39%
TK-10
  growth at 10 µM: -5%
HL-60(TB)
  growth at 100 µM: -38%
NCI-H23 [9]
  growth at 100 µM: -67%
U-251
  growth at 100 µM: -91%
UACC-257 [10]
  growth at 100 µM: -81%
OVCAR-4 [11]
  growth at 100 µM: -12%
OVCAR-5 [12]
  growth at 100 µM: -30%
OVCAR-8
  growth at 100 µM: -65%
